Experimental data as given in patent publication US11464228B2 (priority 2020, dated 2022).
“Also recorded” adds a separate entry of the source.

Columns and labels:
[1] = system: Microcystis aeruginosa (FACHB-905); assay: Algicidal effect on toxin-producing Microcystis aeruginosa, OD680 over 5 d in light incubator; format: cell-based
Description: (§1) Microcystis aeruginosa is cultured in a light incubator (GZX-250BS-III), provided by Shanghai CIMO Medical Instrument Co., Ltd., with a light intensity of 3000 LX, a light-dark time ratio of 12:12, and a temperature setting of 25° C. The four kinds of bacteria are all cultured in a biochemical incubator (SPX-150), provided by Shanghai Yuejin Medical Instruments Co., Ltd., with a temperature setting of 37° C.
(§2) The concentration of Microcystis aeruginosa and other bacteria is measured with an ultraviolet spectrophotometer (Shimadzu, UV-2700), and the concentration is characterized by the optical density of liquid at 680 nm and 600 nm, and recorded as OD680 and OD600, respectively.
(§3) 100 mL of BG-11 medium was added to a 150 mL Erlenmeyer flasks, and was inoculated with cyanobacteria of 0.2 calculated as OD680 under aseptic conditions. Different volumes of the AA stock solution were added to the Erlenmeyer flasks to make sure that the dosage of AA was 5 mg/L, 7 mg/L, 10 mg/L, 15 mg/L and 20 mg/L in different Erlenmeyer flasks. At the same time, a control experiment (Control) without AA was established. The cyanobacteria were put in a light incubator for culture. Considering the existing reports that the most suitable growth light for cyanobacteria was 2,000-4,000 LX (see “Freshwater Algae Culture Collection at the Institute of Hydrobiology”, website “http://algae.ihb.ac.cn/Products/ProductDetail.aspx?product=523”, and the literature “The effect of light on the growth and chlorophyll fluorescence of Chlorella and Microcystis aeruginosa”, Journal of Xi'an University of Arts and Science, 2019, 22, 73-77”), 3,000 LX was selected as the light intensity in the present example. At the beginning of the incubation and after 0.5 d, 1 d, 1.5 d, 2 d, 3 d, 4 d and 5 d of the incubation, samples were taken to detect the OD680 under aseptic conditions.

[2] = system: Microcystis aeruginosa (FACHB-469); assay: Algicidal effect on non-toxic Microcystis aeruginosa, OD680 over 5 d in light incubator; format: cell-based
Description: as §1, §2, §3
Except for the different cyanobacteria strain, other operations are the same as those in step (1).

Microcystis aeruginosa [3] = assay: Algicidal effect at different initial densities of Microcystis aeruginosa, OD680; format: cell-based; conditions: 15 mg/L; initial OD680 0.11 to 1.0 (up to 2.59×10^7 cells/mL); 5 d
Description: (§4) Unless otherwise specified, the Microcystis aeruginosa species used in the following examples is the high-toxin-producing strain FACHB-905.
as §2
100 mL of BG-11 medium was added to 150 mL Erlenmeyer flasks, and was inoculated with cyanobacteria to finally obtain solutions with the OD680 of 0.11, 0.27, 0.62 and 1.0, respectively, under aseptic conditions. A certain volume of the AA stock solution was added to the Erlenmeyer flasks, so that the dosage of AA is 15 mg/L. At the same time, the control experiments (Control) without AA were established for different cyanobacteria densities. The cyanobacteria were put in a light incubator for culture. At the beginning of the incubation and after 1 d, 2 d, 3 d, 4 d, and 5 d of the incubation, samples were taken to detect the OD680 under aseptic conditions.

Microcystis aeruginosa [4] = assay: Comparison of algaecides, inhibition rate from chlorophyll a content; format: cell-based; conditions: incubated 3 days; 15 mg/L
From the text: as §4
The measurement of chlorophyll a refers to the method in the literature (“Potent removal of cyanobacteria with controlled release of toxic secondary metabolites by a titanium xerogel coagulant”, Water Res. 2018, 128, 341-349). Specifically, collected algae culture is filtered with a 0.7 μm GF/F glass filter membrane (Whatman). The collected cells are frozen overnight in a refrigerator at −4° C. Then 90% acetone is added for overnight extraction. The extract is centrifuged in a high-speed refrigerated centrifuge (Tianuoda, CT14RD) at 10,000 rpm and 4° C. for 10 min to collect the supernatant, and the absorbance is detected at 630 nm, 663 nm, 645 nm and 750 nm. The formula for calculating the content of chlorophyll a is as follows:
[formula] wherein A663, A750, A645 and A750 are the absorbance of the supernatant at 663 nm, 750 nm, 645 nm and 750 nm, respectively. Ve is the volume of an extracted solution, Vs is the volume of a filtered solution, and δ is the optical path of a cuvette. The calculation formula for the inhibition rate of an algaecide on Microcystis aeruginosa is as follows: […]
300 mL of BG-11 medium was added to 500 mL Erlenmeyer flasks, and was inoculated with cyanobacteria of 0.2 calculated as OD680 under aseptic conditions. […]

Bacillus subtilis = assay: Bacterial growth with AA, OD600 after 24 h; format: cell-based; conditions: for effect on growth (OD600): 6-768 mg/L, 24 h, vs control
Description: (§5) The bacteria used in the following examples are Escherichia coli, Salmonella, Bacillus subtilis and Staphylococcus aureus, all of which are provided by the School of Life Sciences, Nanjing University. The bacteria are cultured with an LB nutrient broth. The main components of the LB nutrient broth include: tryptone 10.0 g/L, yeast extract 5.0 g/L, and sodium chloride 10.0 g/L.
as §1, §2
(§6) 4 mL of nutrient broth was added to 9 test tubes under aseptic conditions, and the test tubes were numbered 1 to 9. A broth stock solution containing 1,536 mg/L AA was prepared, and 4 mL of which was taken and added to the No. 9 test tube. After the solution in the No. 9 test tube was uniformly mixed, 4 mL of the mixed solution in the No. 9 test tube was taken and added to the No. 8 test tube. By analogy, dilution was performed by the stepwise dilution method to the No. 2 test tube, and after uniform mixing, 4 mL of the solution in the No. 2 test tube was taken and discarded. The No. 1 test tube without AA was taken as the blank group (Control). The final concentrations of AA in each test tube from No. 1 to No. 9 were 0 mg/L, 6 mg/L, 12 mg/L, 24 mg/L, 48 mg/L, 96 mg/L, 192 mg/L, 384 mg/L, and 768 mg/L, respectively. A suspension of the bacteria was diluted with nutrient broth to an OD600 of 0.05. 100 μL of the diluted suspension was added to each of the 9 test tubes, and the test tubes were sealed with sterilized sealing films. After completing the above operations, the bacterial solutions were put into a biochemical incubator, and the OD600 in each test tube was measured after incubation for 24 h.

Escherichia coli = assay: Bacterial growth with AA, OD600 after 24 h; format: cell-based; conditions: for growth rate (OD600) / effect on growth (OD600): 24 h; for effect on growth (OD600): 6-768 mg/L, vs control
Description: as §5, §1, §2, §6

Salmonella = assay: Bacterial growth with AA, OD600 after 24 h; format: cell-based
Description: as §5, §1, §2, §6

Staphylococcus aureus = assay: Bacterial growth with AA, OD600 after 24 h; format: cell-based
Description: as §5, §1, §2, §6

Microcystis aeruginosa [5] = assay: Actual photochemical quantum yield of the photosystem (Water-PAM); format: cell-based
Description: as §4
The actual photochemical quantum yield is measured using a Water-PAM phytoplankton analyzer (Walz), and 2.5 mL of algae culture is taken to measure Fm′ and Fs after light adaptation. The calculation formula for the actual photochemical quantum yield is as follows: ϕe=ΔF/Fm′=(Fm′−Fs)/Fm′ wherein ϕe is the actual photochemical quantum yield, and Fm′ and Fs are the maximum chlorophyll fluorescence and the stable chlorophyll fluorescence of the algae culture after light adaptation, respectively (“Effects of different algaecides on the photosynthetic capacity, cell integrity and microcystin-LR release of Microcystis aeruginosa”, Sci. Total Environ. 2013, 463, 111-119).
100 mL of BG-11 medium was added to 150 mL Erlenmeyer flasks, and was inoculated with cyanobacteria to an initial OD680 of 0.2 under aseptic conditions. Different volumes of the AA stock solution were added to the Erlenmeyer flasks, so that the dosage of AA was 7 mg/L, 10 mg/L and 15 mg/L, respectively. At the same time, a control experiment (Control) without AA was established. […] At the beginning of the incubation and after 0.5 d, 1 d, 1.5 d, 2 d, 3 d, 4 d, and 5 d of the incubation, samples were taken to detect the chlorophyll fluorescence parameters under aseptic conditions.

Microcystis aeruginosa [6] = assay: Growth inhibition under natural light (sunlit window sill), OD680; format: cell-based; conditions: under sunlight, within 5 days
Description: as §4, §2
100 mL of BG-11 medium was added to 150 mL Erlenmeyer flasks, and was inoculated with cyanobacteria to an initial OD680 of 0.2 under aseptic conditions. A certain volume of the AA stock solution was added to the Erlenmeyer flasks, so that the dosage of AA was 10 mg/L or 20 mg/L. At the same time, a control experiment (Control) without AA was established. The cyanobacteria were placed at a sunlit window sill for incubation. At the beginning of the incubation and after 0.5 d, 1 d, 1.5 d, 2 d, 3 d, 4 d, and 5 d of the incubation, samples were taken to detect the OD680 under aseptic conditions.

[7] = 25° C.; cited from earlier work
[8] = pH 6.4; cited from earlier work
Daphnia magna = conditions: cited from earlier work
[9] = concentration less than 738 mg/L

CC(=O)CC(C)=O [AA, acetylacetone]
effect on growth (OD680) ([1]; 5 mg/L, compared to the control group): no significant effect
effect on growth (OD680) ([1]; 7 mg/L): inhibited, but the growth curve of which is still increase
algicidal effect on growth (OD680) ([1]; 10 mg/L, within 5 d, weaker than 15 mg/L): continued to show algicidal effect
growth curve (OD680) ([1]; 20 mg/L, compared with 15 mg/L AA): no significant change in the growth curve
optical density (OD680) ([1]; AA concentration greater than 15 mg/L, starting from day 1.5): began to decrease
effect on growth (OD680) ([1]; first day of addition, 5-20 mg/L): no significant effect
algicidal effect on growth (OD680) ([2]; 5 mg/L): still showed algicidal effect
algicidal effect on growth (OD680) ([2]; 7 mg/L): a certain algicidal effect
growth curve (OD680) ([2]; 20 mg/L, compared with 10 mg/L and 15 mg/L AA): did not change significantly
effect on growth (OD680) ([2]; dosage greater than 10 mg/L): significantly inhibited
effect on growth (OD680) ([2]; on day 1.5): inhibited
algicidal performance (OD680) (Microcystis aeruginosa [3]): excellent algicidal performance
inhibition rate on Microcystis aeruginosa (chlorophyll a) (Microcystis aeruginosa [4]): higher than all other algaecides
effect on growth (OD600) (Bacillus subtilis): basically had no influence on the growth
effect on growth (OD600) (Bacillus subtilis; listed as acetylacetone): no inhibitory effect
killing of bacteria (Bacillus subtilis; [9]): will not kill
growth rate (OD600) (Escherichia coli; 12 mg/L): slightly lower than that of the control group
effect on growth (OD600) (Escherichia coli): basically had no influence on the growth
effect on growth (OD600) (Escherichia coli; listed as acetylacetone): no inhibitory effect
growth rate (OD600) (Escherichia coli; concentration increased to 24 mg/L): increased slightly
killing of bacteria (Escherichia coli; [9]): will not kill
growth rate (OD600) (Salmonella; 768 mg/L, still a growth trend within 24 h): decreased
growth rate (OD600) (Salmonella; 6-384 mg/L, compared with the control group): increased
effect on growth (OD600) (Salmonella; 6-768 mg/L, 24 h, vs control): no inhibitory effect; also recorded: basically had no influence on the growth
killing of bacteria (Salmonella; [9]): will not kill
effect on growth (OD600) (Staphylococcus aureus; 6-768 mg/L, 24 h, vs control): basically had no influence on the growth
effect on growth (OD600) (Staphylococcus aureus; 6-768 mg/L, 24 h, vs control, listed as acetylacetone): no inhibitory effect
killing of bacteria (Staphylococcus aureus; [9]): will not kill
effect on growth (OD600) (Staphylococcus aureus; concentration of up to 768 mg/L): can still promote the growth
actual photochemical quantum yield (Microcystis aeruginosa [5]; after 1 day of incubation, 7, 10, 15 mg/L): significantly inhibited
actual photochemical quantum yield (Microcystis aeruginosa [5]; second day of growth, AA of greater than 7 mg/L): 0
effect on growth (OD680) (Microcystis aeruginosa [6]; 10 mg/L): significantly inhibited
effect on growth (OD680) (Microcystis aeruginosa [6]; 20 mg/L): significantly inhibited
Henry's law constant [7]: 2.35×10^−6 atm m^3/mol
aquatic oxidation rate [8]: 9.9e-09 M⁻¹ s⁻¹
median lethal dose (Daphnia magna): higher than 50 mg/L

O=C(O)c1cc(O)c(O)c(O)c1 [gallic acid, reference compound]
inhibition rate on Microcystis aeruginosa (chlorophyll a) (Microcystis aeruginosa [4]): close to that of AA
